Experimental data published in EP0572494B1, “COMPOSITION FOR USE IN TRANSDERMAL ADMINISTRATION” (priority 1991, dated 1992).

Key:
[1] = Urinary ibuprofen after topical application to shaved dorsal skin; format: in vivo, Hooded Wistar rats; details: topically applied composition according to the invention
Description: Four anesthetized Hooded Wistar rats were fitted with jugular and bladder catheters. […] Plastic covers were placed over the shaved area to prevent the animals ingesting the applied composition.
The animals were placed in metabolism cages and the urinary ibuprofin monitored.

[2] = according to Gruber et al; cited from earlier work
[3] = Particle size distribution by microscopic examination; format: physicochemical
Method: For the purposes of this specification the particle size of the particles was determined by microscopic examination. It should be assumed that the particles are of a constant thickness. The surface area of each visible particle face should be determined, and the particle size calculated by calculating the square root of the visible surface area of each particle.
The particle size of the ibuprofen crystallites precipitated during the cooling and stirring of the above formulation was compared with that of the unreacted ibuprofen powder. The respective particle sizes were determined by microscopic examination. It was assumed that the crystals were of a constant thickness. The surface area of each crystal was then determined, and the particle size calculated by calculating the square root of the measured surface area. This value was then taken to be the length of side. The total area of the counted particles was measured and the sum of the areas of the different size ranges estimated as a percentage of the total. The results were: Table 1
The particle size of the crystals were determined by microscopic examination. It was assumed that the crystals were of a constant thickness. The surface area of each crystal was then determined, and the particle size calculated by calculating the square root of the measured surface area. This value was then taken to be the length of side. The total area of the counted particles was measured and the sum of the areas of the different size ranges estimated as a percentage of the total. The results were: Table 1

Row | SMILES | absorption kinetics [1] | time still being excreted after topical application [1] | solubility in water and conventional media [2] | Percentage Particles in Size range ([3]; size range 10-20µm) | Percentage Particles in Size range ([3]; size range 20-50µm) | Percentage Particles in Size range ([3]; size range 50-100µm) | Percentage Particles in Size range ([3]; size range >100µm)
1 | CC(C)Cc1ccc(C(C)C(=O)O)cc1 (stereo not shown) [ibuprofen] | zero order kinetics | more than 160 hours | only sparingly soluble | – | – | – | –
2 | O=C1O[C@H]([C@@H](O)CO)C(O)=C1O [Unformulated Ascorbic Acid, ascorbic acid] | – | – | – | 0.36 Percentage | 0.57 Percentage | 2.7 Percentage | 96 Percentage
